Data taken from patent US11155740B2, “Shale hydration inhibitor and method of use” (M-I L.L.C., priority 2014, dated 2021).

Experiment: OECD 306 marine biodegradation
Text: In the following example, additive formulations were studied for biodegradability in order to quantify the suitability of the formulations for use in environmentally sensitive areas. One measure of sample toxicity is marine biodegradation data as outlined in Organization for Economic Cooperation and Development, Procedure OECD 306 or BODIS. Under OECD 306, the rules that governing offshore chemical use set forth three tests: bioaccumulation, biodegradation and toxicity. In order for a chemical to be used without restriction offshore in the North Sea it must satisfy two of the following three criteria: (1) biodegradation must be greater than 60%, if less than 20% it is automatically marked for substitution; (2) bioaccumulation as measured by octanol/water partitioning coefficient (log Po/w) must be below 3 (or have a molecular weight >700); and toxicity to the most sensitive marine species (often Skeletonema) must be greater than LC50 or EC50 of 10 ppm.
During the biodegradation testing, samples were formulated as show below in Table 4, where polyetheramine is a diamino-functionalized JEFFAMINE™.
Samples were then subjected to biodegradation and results were tabulated as shown below in Table 5. Comparative samples of sodium benzoate and ULTRAHIB™ PLUS, an amine-based shale inhibitor commercially available from M-I L.L.C., were also assayed.

What does the source list for `O=C([O-])c1ccccc1.[Na+]` [Sodium benzoate]?
OECD 306 Biodegradation Day 7 (Day 7): 64%; OECD 306 Biodegradation Day 14 (Day 14): 71%; OECD 306 Biodegradation Day 21 (Day 21): 76%; OECD 306 Biodegradation Day 28 (Day 28): 78%
